Peptide text beside a SMILES is read from it. * marks the point of attachment. PhAc = O=C(Cc1ccccc1)*; Boc = CC(C)(C)OC(=O)*; Propionyl = CCC(=O)*; Bz = O=C(c1ccccc1)*
Test system: spontaneously hypertensive rates (SHR rats)
Experiment: Measurement of change in blood pressure (systolic, indirect, conscious rats) after one oral dose
Assay type: in vivo, rat
Conditions: for Systolic Blood Pressure, Lowest Value: after administration; for Δ Blood Pressure (systolic): lowest value minus value before administration
Method: The antihypertensive activities of the amino acid derivatives as prepared above were determined.
As subject animals, there were used 5 spontaneously hypertensive rates (SHR rats) which had been sufficiently trained and confirmed to be hypertensive (mode, the body weight of 400 g) per a sample.
As an instrument for measuring the blood pressure there was used Programmed Electro-Sphygmomanometer PE-300 (Narco Co., U.S.A.), and the blood pressure was indirectly measured on conscious rats.
An aqueous solution of a sample (0.05 m mole/kg) was once force-fed into the stomach by means of a […] probe. As a control, the water as deionized was fed to the same animals as above.

[1] = second table (Examples 25-43), before administration
[2] = SHR rats, single force-feeding into the stomach, 0.05 m mole/kg
[3] = SHR rats, 5 per sample, before single force-feeding into the stomach of 0.05 m mole/kg aqueous solution

Row | Molecule | Hrs. After Admin. (of lowest systolic blood pressure value) (second table (Examples 25-43)) | Systolic Blood Pressure, Lowest Value (second table (Examples 25-43)) | Systolic Blood Pressure, Value Before Administration [1] | Δ Blood Pressure (systolic) (second table (Examples 25-43)) | Systolic Blood Pressure, Lowest value after administration [2] | Δ Blood Pressure (systolic) [2] | Systolic Blood Pressure, Value Before Administration [3] | Hours after administration (of lowest systolic blood pressure value) [2]
1 | CC[C@H](C)[C@H](NC(=O)c1ccccc1)C(=O)N1CCC[C@H]1C(=O)N1CCC[C@H]1C(=O)O [Example 25, N--benzoyl-L-isoleucyl-L-prolyl-L-proline] (Bz-Ile-Pro-Pro-OH) | 8 h | 201 | 229 | -28 | – | – | – | –
2 | CCS(=O)(=O)N[C@@H](CCCNC(=N)N)C(=O)N1CCC[C@H]1C(=O)N1CCC[C@H]1C(=O)O [Example 41, N--ethane sulfonyl-L-arginyl-L-prolyl-L-proline] | 7 h | 185 | 204 | -19 | – | – | – | –
3 | C[C@H](NC(=O)c1ccccc1)C(=O)N1CCC[C@H]1C(=O)N1CCC[C@H]1C(=O)O [Example 13, N-benzoyl-L-alanyl-L-prolyl-L-proline] (Bz-Ala-Pro-Pro-OH) | – | – | – | – | 177 mm Hg | -43 mm Hg | – | –
4 | CCOC(=O)N[C@@H](CCSC)C(=O)N1CCC[C@H]1C(=O)N1CCC[C@H]1C(=O)[O-].[Na+] [Example 36, N--Ethoxycarbonyl-L-methionyl-L-prolyl-L proline sodium salt] | 8 h | 206 | 223 | -17 | – | – | – | –
5 | CCS(=O)(=O)N[C@@H](C)C(=O)N1CCC[C@H]1C(=O)N1CCC[C@H]1C(=O)O [Example 12, N-ethanesulfonyl-L-alanyl-L prolyl-L-proline] | – | – | – | – | 159 mm Hg | -45 mm Hg | 204 mm Hg | 24 h
6 | O=C(O)[C@@H]1CCCN1C(=O)[C@@H]1CCCN1C(=O)[C@H](CO)NCc1ccccc1 [Example 29, N--benzyl-L-seryl-L-prolyl-L-proline] | 8 h | 192 | 214 | -22 | – | – | – | –
7 | C[C@@H](C(=O)N1CCC[C@H]1C(=O)N1CCC[C@H]1C(=O)O)N1C(=O)c2ccccc2C1=O [Example 8, N-phthaloyl-L-alanyl-L prolyl-L-proline] | – | – | – | – | 207 mm Hg | -18 mm Hg | 225 mm Hg | 4 h
8 | C[C@H](NC(=O)OC(C)(C)C)C(=O)N1CCC[C@H]1C(=O)N1CCC[C@H]1C(=O)O [Example 16, N-t-butyloxycarbonyl-L-alanyl-L-prolyl-L-proline] (Boc-Ala-Pro-Pro-OH) | – | – | – | – | 173 mm Hg | -21 mm Hg | – | –
9 | N-(benzylthio) thiocarbonyl-L-alanyl-L-prolyl-L-proline L-arginine salt [Example 9] | – | – | – | – | 191 mm Hg | -25 mm Hg | 216 mm Hg | 24 h
10 | C[C@H](NC(=O)c1ccco1)C(=O)N1CCC[C@H]1C(=O)N1CCC[C@H]1C(=O)O [Example 7, N-(2-furoyl)-L-alanyl-L-prolyl-L-proline] | – | – | – | – | 177 mm Hg | -28 mm Hg | – | –
11 | N-phenylthiocarbamoyl-L-alanyl-L-prolyl-L-proline L-arginine salt [Example 18] | – | – | – | – | 211 mm Hg | -13 mm Hg | 224 mm Hg | 24 h
12 | CCS(=O)(=O)NCC(=O)N1CCC[C@H]1C(=O)N1CCC[C@H]1C(=O)O [Example 39, N--ethanesulfonyl-glycyl-L-prolyl-L-proline] | 8 h | 215 | 232 | -18 | – | – | – | –
13 | C[C@H](NC(=O)c1cccs1)C(=O)N1CCC[C@H]1C(=O)N1CCC[C@H]1C(=O)O [Example 6, N-(2-thenoyl)-L-alanyl-L-prolyl-L-proline] | – | – | – | – | 182 mm Hg | -20 mm Hg | – | –
14 | CC[C@H](C)[C@H](NS(=O)(=O)CC)C(=O)N1CCC[C@H]1C(=O)N1CCC[C@H]1C(=O)O.[Na] [Example 37, N--ethanesulphonyl-L-isoleucyl-L-prolyl-proline sodium salt] | 8 h | 194 | 218 | -22 | – | – | – | –
15 | N-benzylsulfonyl-L-alanyl-L-prolyl-L-proline L-arginine salt [Example 11] | – | – | – | – | 174 mm Hg | -28 mm Hg | 202 mm Hg | 8 h
16 | CCOC(=O)N[C@@H](C)C(=O)N1CCC[C@H]1C(=O)N1CCC[C@H]1C(=O)O [Example 1, N-ethoxycarbonyl-L-alanyl-L-prolyl-L-proline] | – | – | – | – | 155 mm Hg | -38 mm Hg | – | –
17 | CCS(=O)(=O)N[C@@H](Cc1ccccc1)C(=O)N1CCC[C@H]1C(=O)N1CCC[C@H]1C(=O)O [Example 38, N--ethanesulfonyl-L-phenylalanyl-L-prolyl-L-proline] | 8 h | 201 | 235 | -34 | – | – | – | –
18 | CC(=O)N[C@@H](C)C(=O)N1CCC[C@H]1C(=O)N1CCC[C@H]1C(=O)O [Example 3, N-acetyl-L-alanyl-L-prolyl-L-proline] (Ac-Ala-Pro-Pro-OH) | – | – | – | – | 160 mm Hg | -41 mm Hg | – | –
19 | CCS(=O)(=O)N[C@@H](CCC(=O)O)C(=O)N1CCC[C@H]1C(=O)N1CCC[C@H]1C(=O)O [Example 40, N--ethane sulfonyl-L-glutamyl-L-prolyl-L proline] | 8 h | 202 | 220 | -18 | – | – | – | –
20 | CCC(=O)N[C@@H](C)C(=O)N1CCC[C@H]1C(=O)N1CCC[C@H]1C(=O)O [Example 4, N-propionyl-L-alanyl-L-prolyl-L-proline] (Propionyl-Ala-Pro-Pro-OH) | – | – | – | – | 173 mm Hg | -24 mm Hg | – | –
21 | O=C(NCC(=O)N1CCC[C@H]1C(=O)N1CCC[C@H]1C(=O)O)c1ccccc1 [Example 27, N--benzoyl-glycyl-L-prolyl-L-proline] (Bz-Gly-Pro-Pro-OH) | 8 h | 209 | 232 | -23 | – | – | – | –
22 | CCS(=O)(=O)N[C@@H](CO)C(=O)N1CCC[C@H]1C(=O)N1CCC[C@H]1C(=O)[O-].[Na+] [Example 42, N--ethane sulfonyl-L-seryl-L-prolyl-L-proline sodium salt] | 24 h | 200 | 220 | -20 | – | – | – | –
23 | O=C(O)CC[C@H](NC(=O)c1ccccc1)C(=O)N1CCC[C@H]1C(=O)N1CCC[C@H]1C(=O)O [Example 28, N--benzoyl-L-glutamyl-L-prolyl-L-proline] (Bz-Glu-Pro-Pro-OH) | 8 h | 196 | 235 | -39 | – | – | – | –
24 | O=C(N[C@@H](Cc1ccccc1)C(=O)N1CCC[C@H]1C(=O)N1CCC[C@H]1C(=O)O)c1ccccc1.[Na] [Example 26, N--Benzoyl-L-phenylalanyl-L-prolyl-L-proline sodium salt] (Bz-Phe-Pro-Pro-OH) | 8 h | 194 | 228 | -34 | – | – | – | –
25 | CCOC(=O)N[C@@H](CO)C(=O)N1CCC[C@H]1C(=O)N1CCC[C@H]1C(=O)O [Example 35, N--Ethoxycarbonyl-L-seryl-L-prolyl-L-proline] | 8 h | 195 | 220 | -25 | – | – | – | –
26 | C[C@H](NC(=O)Cc1ccccc1)C(=O)N1CCC[C@H]1C(=O)N1CCC[C@H]1C(=O)O [Example 14, N-phenylacetyl-L-alanyl-L-prolyl-L-proline] (PhAc-Ala-Pro-Pro-OH) | – | – | – | – | 175 mm Hg | -24 mm Hg | – | –
